Results taken from US6673791B2, “Non-nucleoside reverse transcriptase inhibitors” (Boehringer Ingelheim (Canada) Ltd., priority 2001, dated 2004).
Where two headings read alike, the source gives them in different places.

Key:
[1] = test system: K103N/Y181C (HIV-1 double mutant strain); test: EC50 assay, K103N/Y181C strain; format: cell-based
Source text: (§1) Reverse TranscriptASE (RT) Assays
(§2) The assays are as described in WO 01/96338A1, the contents of which are hereby incorporated herein. The results are listed in Tables 8 as IC50(nM) and EC50(nM).

[2] = test system: V106A (HIV-1 mutant strain); test: EC50 assay, V106A strain; format: cell-based; conditions: Human immunodeficiency virus 1, read-out: EC50 V106A (nM)
Source text: as §1, §2

[3] = test system: WT RT (HIV-1 wild type strain); test: EC50 assay, WT RT strain; format: cell-based
Source text: as §1, §2

[4] = biological target: T1, V106A mutant RT (HIV-1 RT) (Human immunodeficiency virus type 1 group M subtype B, UniProt P03366, V705A); test: biochemical
T1 construct: mutations that occur in the reverse transcriptase segment of the pol gene
Source text: (§3) Based upon testing of these compounds, as described below, it is known that they inhibit the RNA-dependent DNA polymerase activity of HIV-1 RT. […] Utilising the Reverse Transcriptase (RT) Assay described below, compounds can be tested for their ability to inhibit the RNA-dependent DNA polymerase activity of HIV-1 RT. Certain specific compounds described in the Examples which appear below, were so tested. The results of this testing appear in Table 4 as IC50 (nM) and Table 5 as EC50 (nM).
as §1, §2

[5] = biological target: T2, WT RT (HIV-1 RT) (Human immunodeficiency virus type 1 group M subtype B, UniProt P03366); test: biochemical
T2 construct: mutations that occur in the reverse transcriptase segment of the pol gene
Source text: as §3, §1, §2

[6] = biological target: T3, Y188L mutant RT (HIV-1 RT) (Human immunodeficiency virus type 1 group M subtype B, UniProt P03366, Y787L); test: biochemical
T3 construct: mutations that occur in the reverse transcriptase segment of the pol gene
Source text: as §3, §1, §2

[7] = biological target: T4, K103N/Y181C double mutant RT (HIV-1 RT) (Human immunodeficiency virus type 1 group M subtype B, UniProt P03366, K702N/Y780C); test: biochemical
T4 construct: mutations that occur in the reverse transcriptase segment of the pol gene
Source text: as §3, §1, §2

[8] = Human immunodeficiency virus 1, read-out: EC50 K103N/Y181C (nM), K103N/Y181C double mutant
[9] = Human immunodeficiency virus 1, read-out: EC50 WT RT (nM)
[10] = read-out: EC50 K103N/Y181C, K103N/Y181C double mutant
[11] = read-out: EC50 WT RT, wild type
[12] = read-out: IC50 WT RT, wild type RT
[13] = read-out: IC50 K103N/Y181C, K103N/Y181C double mutant RT

Row | Structure (SMILES) | EC50 [1, 8] [nM] | EC50 [2] [nM] | EC50 [3, 9] [nM] | IC50 ([4]; IC50 V106A (nM)) [nM] | IC50 [5] [µM] | IC50 ([6]; IC50 Y188L (nM)) [nM] | IC50 [7] [µM] | EC50 [1, 10] [nM] | EC50 [3, 11] [nM] | IC50 ([4]; read-out: IC50 V106A) [nM] | IC50 [5, 12] [µM] | IC50 ([6]; read-out: IC50 Y188L) [nM] | IC50 [7, 13] [µM] | EC50 ([1]; K103N/Y181C double mutant, read-out: EC50 K103N/Y181C) [nM] | EC50 ([3]; wild type, read-out: EC50 WT RT) [nM] | IC50 ([5]; wild type RT, read-out: IC50 WT RT) [µM] | IC50 ([7]; K103N/Y181C double mutant RT, read-out: IC50 K103N/Y181C) [µM]
1 | CCN1c2ncc(CCOc3ccc(NS(=O)(=O)C(F)(F)F)c4ccccc34)cc2C(=O)N(C)c2ccc(F)nc21 [Entry 2002] | < 100 | 100 to 1000 | < 100 | > 1000 | < 0.1 | > 1000 | 0.1 to 1 |  |  |  |  |  |  |  |  |  | 
2 | CCN1c2ncc(CCOc3ccc(/C=C/C(=O)O)c4ccccc34)cc2C(=O)N(C)c2ccc(Cl)nc21 [Entry 2016] |  |  |  |  |  |  |  | 100 to 1000 | < 100 | 100 to 1000 | < 0.1 | 100 to 1000 | 0.1 to 1 |  |  |  | 
3 | CCN1c2ncc(CCOc3ccc(/C=C/C(=O)O)c4ccccc34)cc2C(=O)Nc2c(C)cc(Cl)nc21 [Entry 2018] |  |  |  | 100 to 1000 |  |  |  | 100 to 1000 | < 100 |  | < 0.1 | > 1000 | 0.1 to 1 |  |  |  | 
4 | CCN1c2ncc(CCOc3ccc(CCC(=O)NN)c4ccccc34)cc2C(=O)N(C)c2cccnc21 [Entry 2020] |  |  |  |  |  |  |  |  |  | > 1000 |  | > 1000 |  | 100 to 1000 | < 100 | < 0.1 | 0.1 to 1
5 | CCN1c2ncc(CCOc3ccc4cc(C(=O)NN)ccc4c3)cc2C(=O)N(C)c2cccnc21 [Entry 3002] | 100 to 1000 |  | < 100 | < 100 | < 0.1 | > 1000 | 0.1 to 1 |  |  |  |  |  |  |  |  |  | 
6 | CCN1c2ncc(CCOc3ccc4cc(C(=O)NC(C)(C)C(=O)O)ccc4c3)cc2C(=O)N(C)c2cccnc21 [Entry 3003] | 100 to 1000 |  | < 100 | 100 to 1000 | < 0.1 | > 1000 | 0.1 to 1 |  |  |  |  |  |  |  |  |  | 
7 | CCN1c2ncc(CCOc3ccc4cc(CC(=O)NN)ccc4c3)cc2C(=O)N(C)c2cccnc21 [Entry 3005] | < 100 |  | < 100 | < 100 | < 0.1 | 100 to 1000 | 0.1 to 1 |  |  |  |  |  |  |  |  |  | 
8 | CCN1c2ncc(CCOc3ccc(C(=O)O)c4c3CCC4)cc2C(=O)N(C)c2cccnc21 [Entry 4001] | < 100 |  | < 100 | 100 to 1000 | < 0.1 | > 1000 | 0.1 to 1 |  |  |  |  |  |  |  |  |  | 
9 | CCN1c2ncc(CCOc3ccc(C(=O)O)c4c3CCC4)cc2C(=O)N(C)c2ccc(Cl)nc21 [Entry 4002] | < 100 |  | < 100 | 100 to 1000 | < 0.1 | 100 to 1000 | < 0.1 |  |  |  |  |  |  |  |  |  | 
10 | CCN1c2ncc(CCOc3ccc(C(=O)O)c4c3CCCC4)cc2C(=O)N(C)c2cccnc21 [Entry 5001] | < 100 | 100 to 1000 | < 100 | > 1000 | < 0.1 | > 1000 | 0.1 to 1 |  |  |  |  |  |  |  |  |  | 
11 | CCN1c2ncc(CCOc3ccc(C(=O)O)c4c3CCCC4)cc2C(=O)N(C)c2ccc(Cl)nc21 [Entry 5002] | < 100 |  | < 100 | > 1000 | < 0.1 | 100 to 1000 | 0.1 to 1 |  |  |  |  |  |  |  |  |  | 
12 | CCN1c2ncc(CCOc3ccc(C(=O)O)c4c3CCCC4)cc2C(=O)N(C)c2ccc(F)nc21 [Entry 5003] | < 100 |  | < 100 | > 1000 | < 0.1 | 100 to 1000 | 0.1 to 1 |  |  |  |  |  |  |  |  |  | 
13 | CCN1c2ncc(CCOc3ccc(C(=O)O)c4c3CCCC4)cc2C(=O)N(C)c2ccc(C)nc21 [Entry 5004] | < 100 |  | < 100 | > 1000 | < 0.1 | 100 to 1000 | 0.1 to 1 |  |  |  |  |  |  |  |  |  | 
14 | CCN1c2ncc(CCOc3ccc(C(=O)O)c4c3CCCC4)cc2C(=O)N(C)c2ccc(OC)nc21 [Entry 5005] | < 100 |  | < 100 | > 1000 | < 0.1 | 100 to 1000 | 0.1 to 1 |  |  |  |  |  |  |  |  |  | 
15 | CCN1c2ncc(CCOc3ccc(CC(=O)O)c4c3CCCC4)cc2C(=O)N(C)c2ccc(Cl)nc21 [Entry 5007] | < 100 |  | < 100 | 100 to 1000 | < 0.1 | 100 to 1000 | 0.1 to 1 |  |  |  |  |  |  |  |  |  | 
16 | CCN1c2ncc(CCOc3ccc(CC(=O)O)c4c3CCCC4)cc2C(=O)N(C)c2ccc(F)nc21 [Entry 5008] | < 100 |  | < 100 | > 1000 | < 0.1 | > 1000 | 0.1 to 1 |  |  |  |  |  |  |  |  |  | 
17 | CCN1c2ncc(CCOc3ccc(CCC(=O)O)c4c3CCCC4)cc2C(=O)N(C)c2cccnc21 [Entry 5009] | < 100 |  | < 100 | > 1000 | < 0.1 | > 1000 | 0.1 to 1 |  |  |  |  |  |  |  |  |  | 
18 | CCN1c2ncc(CCOc3ccc(CCC(=O)O)c4c3CCCC4)cc2C(=O)N(C)c2ccc(Cl)nc21 [Entry 5010] | < 100 |  | < 100 | > 1000 | < 0.1 | 100 to 1000 | 0.1 to 1 |  |  |  |  |  |  |  |  |  | 
19 | CCN1c2ncc(CCOc3ccc(C(=O)O)c4c3CCN(C(=O)OC)C4)cc2C(=O)N(C)c2cccnc21 [Entry 7002] | < 100 | 100 to 1000 | < 100 | > 1000 | < 0.1 | 100 to 1000 | 0.1 to 1 |  |  |  |  |  |  |  |  |  | 
20 | CCN1c2ncc(CCOc3ccc(C(=O)O)c4c3CCN(C(=O)OC(C)(C)C)C4)cc2C(=O)N(C)c2cccnc21 [Entry 7003] | < 100 |  | < 100 | > 1000 | < 0.1 | 100 to 1000 | 0.1 to 1 |  |  |  |  |  |  |  |  |  | 
21 | CCNC(=O)N1CCc2c(OCCc3cnc4c(c3)C(=O)N(C)c3cccnc3N4CC)ccc(C(=O)O)c2C1 [Entry 7006] | > 1000 |  | 100 to 1000 | 100 to 1000 | < 0.1 | > 1000 | 0.1 to 1 |  |  |  |  |  |  |  |  |  | 
22 | CCN1c2ncc(CCOc3ccc(C(=O)O)c4c3CCN(C(=O)N(C)C)C4)cc2C(=O)N(C)c2cccnc21 [Entry 7007] | < 100 |  | < 100 | 100 to 1000 | < 0.1 | 100 to 1000 | < 0.1 |  |  |  |  |  |  |  |  |  | 
23 | CCN1c2ncc(CCOc3ccc(C(=O)O)c4c3CCN(S(=O)(=O)N(C)C)C4)cc2C(=O)N(C)c2cccnc21 [Entry 7008] | < 100 |  | < 100 | 100 to 1000 | < 0.1 | 100 to 1000 | < 0.1 |  |  |  |  |  |  |  |  |  | 
